Data published in paper PMC6940354, “Comparative Assessment of the New PDE7 Inhibitor – GRMS-55 and Lisofylline in Animal Models of Immune-Related Disorders: A PK/PD Modeling Approach” (Pharmaceutical Research, 2020).
Converted amounts (≈) assume the structure as drawn.

Legend:
[1] = tested on: TNF-α release in mice model of endotoxemia; parameters: method as in PMID 20389149; conditions: mice model of endotoxemia ref [19]; cited from earlier work
[2] = tested on: TNF-α release from LPS-stimulated whole rat blood; assay: Inhibition of LPS-induced TNF-α release in whole rat blood; assay type: cell-based; conditions: LPS 10 mg L^−1, 6 h incubation, compared to LPS-treated control
Experimental: Stimulation of whole rat blood by LPS was performed on 96-well plates. […] Contents of each well (200 μL) consisted of heparinized rat blood containing 10 U heparin mL^−1 diluted with RPMI-1640 medium at a ratio of 1:1 (v/v). All compounds were dissolved in DMSO and added to blood (the final DMSO concentration in blood was 0.5%) 15 min prior to the addition of LPS dissolved in RPMI-1640 medium to achieve the LPS concentration of 10 mg L^−1. Both, LPS and DMSO were also added to control wells at the same concentrations. Additional control samples (for testing baseline TNF-α levels in blood) consisted of DMSO (0.5%) without LPS. The incubation was performed at 37°C in a humidified atmosphere of 5% CO2 in an MCO-5 AC-PE incubator (PHCbi, Japan). After 6 h of incubation, the plates were centrifuged for 10 min using PlateFuge MicroCentrifuge (Benchmark Scientific, USA). The individual plasma samples were harvested and stored at −80°C until analysis.
(§1) TNF-α levels in LPS-stimulated rat blood in vitro and in rat plasma samples from the in vivo studies were analyzed by the Rat TNF-α Quantikine ELISA Immunoassay Kit (R&D Systems, USA) according to the manufacturer’s instructions. The assay was linear at the range of 12.5–800 pg mL^−1. Levels of TNF-α in mice serum were measured by ELISA Kits for Tumor Necrosis Factor Alpha (Cloud-Clone Corp., USA). This assay was linear at the range of 15.6–1000 pg mL^−1. Absorbance was measured at 450 nm using a POLARstar Omega multi-mode microplate reader (BMG LABTECH, Germany).

cAMP degradation = tested on: cAMP degradation; parameters: method as in PMID 28730281; conditions: rats, cAMP as a marker of pharmacological response ref [9]; cited from earlier work
[3] = tested on: TNF-α plasma levels in male Wistar rats with LPS-induced endotoxemia; assay: LPS-induced endotoxemia in rats, PK/PD model of plasma TNF-α; assay type: in vivo, rat
Experimental: Male Wistar rats were implanted with catheters (SAI Infusion Technologies, USA) into the jugular vein and after a two-day recovery period they were administered with LPS dissolved in saline at a dose of 1 mg kg ^−1 into the tail vein simultaneously with one of the investigated compounds. […] The doses of the compounds were selected based on the literature data or results of our previous experiments. Each control group received LPS at the same IV dose and an appropriate volume of corresponding vehicle. […] The plasma samples were collected and stored at −80°C until analysis.
as §1
PK/PD and PK/PD/DIS progression models were developed considering the mechanism of action of the investigated compounds, the mechanisms of disease progression in the case of CIA, and the subsequent stages leading to TNF-α release in the case of LPS-induced endotoxemia. Various numbers of transit compartments were tested during development of the models, and the final models were chosen based on the goodness-of-fit criteria, such as AIC, SBC, a visual inspection of the fitting, and parameter precision. Estimated values of pharmacokinetic parameters were fixed during PK/PD and PK/PD/DIS progression model fitting procedures. […] PK/PD and PK/PD/DIS progression modeling were performed in ADAPT 5 software using the weighted least squares algorithm.
Therefore, as a result of PK/PD analysis, three sets of pharmacodynamic parameters were obtained based on the data from the three individual experiments.
The applied model is a modified indirect response model ([19]) with implemented transit compartments (T1-T4) that describe the delay of the observed pharmacodynamic response. In this scheme τ is the mean transit time, kin is the time limited (from 0 to tlag) zero-order rate constant of production of a TNF-α precursor (e.g., TNF-α mRNA). Different numbers of transit compartments were tested during the model development, but the best fit was observed using four transit compartments.
All Imax values were fixed to 1.

[4] = tested on: LPS-stimulated murine macrophages (RAW263.7 cells); parameters: method as in PMID 14998551; conditions: cited from earlier work
[5] = tested on: LPS-stimulated human PBMC; parameters: method as in PMID 14998551; conditions: LPS-stimulated human PBMC ref [31]; read-out: IC50, TNF-α production; cited from earlier work
PDE4 = tested on: PDE4; parameters: method as in PMID 14998551; conditions: ref [31]; read-out: IC50PDE4; cited from earlier work

Structure (SMILES) | IC50 value for the inhibition of TNF-α release [1] [µg/mL] | Reduction of TNF-α levels in LPS-stimulated whole rat blood (result in words) [2] | IC50 value for the inhibition of cAMP degradation (cAMP degradation) [µg/mL] | IC50 ([3]; Rattus norvegicus, iv, read-out: IC50, concentration of compound producing 50% of Imax (inhibition of TNF-α release in vivo), Final estimate (CV%), plasma concentration, PK/PD model, Imax fixed to 1, male Wistar rats, LPS 1 mg kg^−1 IV, IV GRMS-55 20, rolipram 5, (±)-LSF and PTX 40 and 80 mg kg^−1) [µg/mL] | activity in inhibiting TNF-α release in vivo, times lower than that of rolipram ([3]; ratio of IC50 values to rolipram) | TNF-α production (result in words) ([4]; RAW263.7 cells, concentrations of 500 and 1000 μM ref [31]) | IC50 [5] [nM] | IC50 (PDE4) [nM] | IC50 ([4]; LPS-stimulated murine macrophage cell line ref [31], read-out: IC50, TNF-α production) [nM]
CC(=O)CCCCn1c(=O)c2c(ncn2C)n(C)c1=O [PTX, Pentoxifylline] | 0.47 | significantly and with similar potency reduced | 4.48 | 14 (≈ 50.3 µM) | ~ 39 times | significantly inhibited TNF-α production |  |  | 
C[C@@H](O)CCCCn1c(=O)c2c(ncn2C)n(C)c1=O [R-(−)-LSF] | 1.61 |  |  |  |  |  |  |  | 
COc1ccc(C(=O)Nc2c(Cl)cncc2Cl)cc1OC1CCCC1 [RP73401] |  |  |  |  |  |  | 3.3 | 1 | 2.7
